{"source": "paper PMC12360161", "about": "“Identifying 14-3-3 interactome binding sites with deep learning” (Digital Discovery, 2025)", "key": {"[1]": {"molecular_target": "T1, full-length (FL) human 14-3-3γ protein (Homo sapiens, UniProt P61981)", "T1 construct": "The full-length (FL) human 14-3-3γ protein was expressed from a pPROEX plasmid; His6; made in house; host or cells: E. coli BL21(DE3)", "T1 sequence (P61981 1-247)": "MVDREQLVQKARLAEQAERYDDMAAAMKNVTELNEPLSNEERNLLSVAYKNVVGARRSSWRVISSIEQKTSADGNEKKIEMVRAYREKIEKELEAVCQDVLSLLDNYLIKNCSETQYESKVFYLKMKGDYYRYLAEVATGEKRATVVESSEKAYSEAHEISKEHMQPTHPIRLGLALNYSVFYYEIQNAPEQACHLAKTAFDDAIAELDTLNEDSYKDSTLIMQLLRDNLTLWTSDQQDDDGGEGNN", "assay": "Fluorescence anisotropy (FA) assay of FAM-labeled peptides binding to 14-3-3γ", "settings": "for Kd: 14-3-3γ FL dilution series (starting at 500 μM) to 10 nM FAM-labeled peptide, 10 mM HEPES pH 7.4, 150 mM NaCl, 0.1% Tween20, 1 mg/mL BSA, room temperature, Hill fit, mean ± SD; for Binding in the FA assay (in words): 14-3-3γ, 10 nM FAM-labeled peptide", "protocol": "To study the binding of the fluorescently labelled peptides to 14-3-3, Fluorescence Anisotropy (FA) assays were carried out.[23] In the case of binding, tumbling of the peptide with the attached fluorophore will slow down and the emitted light will be polarized. This will lead to a higher anisotropy.[79] For all experiments, 14-3-3γ was used as it was shown in multiple experiments to be the strongest binding variant suitable for experimental screening.[80] The FAM-labeled peptides and the 14-3-3γ FL protein were diluted in buffer (10 mM HEPES pH 7.4, 150 mM NaCl, 0.1% Tween20, 1 mg mL^−1 BSA).\nDilution series of 14-3-3γ proteins (starting at 500 μM) were made to 10 nM of the FAM-labeled peptides in black, round-bottom 384-microwell (Corning) in a final sample volume of 10 μL. Fluorescence anisotropy values were measured using a Tecan Spark Control at room temperature filter set lex: 485 ± 20 nm, lem: 535 ± 25 nm, mirror: Dichroic 510, flashes: 30, integration time: 40 μs, settle time: 1 μs; gain: optimized per peptide, and Z-position: calculated from well. Wells containing only FAM-peptide were used to set as G-factor. The KD values were obtained from fitting the data using Origin 2020 with a Sigmoid Hill1 function (using the Hill equation). Data shown is the average and standard deviation of triplicates. For dose–response curves on a linear scale seep SI Fig. S2."}, "[2]": {"molecular_target": "T2, full-length (FL) human 14-3-3γ protein (human, UniProt P61981 1-247)", "T2 construct": "14-3-3 gamma, human, full length; also called 14-3-3γ FL", "T2 sequence (looked up)": "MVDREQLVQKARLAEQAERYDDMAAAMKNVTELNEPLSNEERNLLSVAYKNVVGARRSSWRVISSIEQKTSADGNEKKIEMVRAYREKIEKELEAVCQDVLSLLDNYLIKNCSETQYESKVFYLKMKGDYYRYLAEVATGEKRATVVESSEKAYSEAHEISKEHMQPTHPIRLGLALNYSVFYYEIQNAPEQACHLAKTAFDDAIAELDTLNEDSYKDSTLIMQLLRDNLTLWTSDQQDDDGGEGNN", "assay": "fluorescence polarisation; fluorescence anisotropy; dilution series of 14-3-3γ (starting at 500 μM) to 10 nM FAM-labeled peptide; 10 mM HEPES pH 7.4, 150 mM NaCl, 0.1% Tween20, 1 mg/mL BSA; room temperature; Hill fit; triplicates", "settings": "both partners purified"}, "[3]": {"molecular_target": "T2, full-length (FL) human 14-3-3γ protein", "assay": "fluorescence polarisation; fluorescence anisotropy; dilution series of 14-3-3γ (starting at 500 μM) to 10 nM FAM-labeled peptide; 10 mM HEPES pH 7.4, 150 mM NaCl, 0.1% Tween20, 1 mg/mL BSA; room temperature; Hill fit; triplicates", "settings": "both partners purified", "remark": "listed apart in the source"}}, "note": "Where two headings read alike, the source gives them in different places. Where a SMILES comes first, the peptide text is derived from it. Where no end group is shown, it is not given here. [ ]: non-standard residue; d: D form. The star is where a group is joined. 5FAM = O=C1OC2(c3ccc(O)cc3Oc3cc(O)ccc32)c2ccc(C(=O)*)cc21; pT = C[C@@H](OP(=O)(O)O)[C@H](N)C(=O)O; pS = N[C@@H](COP(=O)(O)O)C(=O)O; Ahx = NCCCCCC(=O)O"}
{"molecule": "CSCC[C@H](NC(=O)[C@H](CCCNC(=N)N)NC(=O)[C@H](CCCNC(=N)N)NC(=O)[C@H](CC(C)C)NC(=O)[C@H](CCC(=O)O)NC(=O)[C@H](CCCNC(=N)N)NC(=O)CNC(=O)CCCCCNC(=O)c1ccc2c(c1)C(=O)OC21c2ccc(O)cc2Oc2cc(O)ccc21)C(=O)N[C@@H](COP(=O)(O)O)C(=O)N[C@@H](CC(=O)O)C(=O)N[C@@H](CCC(=O)O)C(=O)N[C@@H](Cc1ccccc1)C(=O)N[C@H](C(=O)N[C@@H](CC(=O)O)C(=O)N[C@@H](CO)C(=O)N[C@@H](Cc1ccccc1)C(N)=O)C(C)C", "note": "[Peptide 7] ({5FAM-Ahx}-GRELRRM[pS]DEFVDSF-NH2)", "values": [{"measurement": "Kd", "setting": "[1]; n = 3, read-out: Kd", "value": "> 100", "unit": "µM"}]}
{"molecule": "C[C@H](NC(=O)[C@H](CO)NC(=O)[C@@H]1CCCN1C(=O)[C@H](CO)NC(=O)CNC(=O)[C@H](COP(=O)(O)O)NC(=O)[C@H](CCC(=O)O)NC(=O)[C@H](CO)NC(=O)[C@H](CCCNC(=N)N)NC(=O)[C@H](CCCCN)NC(=O)CNC(=O)[C@@H]1CCCN1C(=O)[C@H](C)NC(=O)CCCCCNC(=O)c1ccc2c(c1)C(=O)OC21c2ccc(O)cc2Oc2cc(O)ccc21)C(=O)NCC(=O)NCC(N)=O", "note": "[Peptide 8] ({5FAM-Ahx}-APGKRSE[pS]GSPSAGG-NH2)", "values": [{"measurement": "Kd", "setting": "[1]; n = 3, read-out: Kd", "value": "> 100", "unit": "µM"}]}
{"molecule": "CC[C@H](C)[C@H](NC(=O)CNC(=O)[C@H](C)NC(=O)[C@H](CCC(=O)O)NC(=O)[C@H](CCC(=O)O)NC(=O)CCCCCNC(=O)c1ccc2c(c1)C(=O)OC21c2ccc(O)cc2Oc2cc(O)ccc21)C(=O)NCC(=O)N[C@@H](CC(=O)O)C(=O)N[C@H](C(=O)N1CCC[C@H]1C(=O)N[C@@H](CO)C(=O)N[C@@H](CC(C)C)C(=O)N[C@@H](CCC(=O)O)C(=O)N[C@@H](CC(=O)O)C(=O)N[C@@H](CCC(=O)O)C(=O)N[C@@H](C)C(N)=O)[C@@H](C)OP(=O)(O)O", "note": "[Peptide 9] ({5FAM-Ahx}-EEAGIGD[pT]PSLEDEA-NH2)", "values": [{"measurement": "Kd", "setting": "[1]; n = 3", "value": "> 500", "unit": "µM"}, {"measurement": "Binding in the FA assay (in words)", "setting": "[1]", "value": "did not bind"}]}
{"molecule": "CC(C)C[C@H](NC(=O)CCCCCNC(=O)c1ccc2c(c1)C(=O)OC21c2ccc(O)cc2Oc2cc(O)ccc21)C(=O)N[C@@H](Cc1c[nH]cn1)C(=O)N[C@@H](CCC(=O)O)C(=O)N[C@@H](CCC(=O)O)C(=O)N[C@H](C(=O)N1CCC[C@H]1C(=O)N1CCC[C@H]1C(=O)N[C@H](C(=O)N[C@H](C(=O)N[C@@H](CO)C(=O)N[C@@H](CO)C(=O)N[C@@H](CC(=O)O)C(=O)N[C@@H](CO)C(=O)N[C@@H](CCC(=O)O)C(=O)N[C@@H](CCC(=O)O)C(N)=O)[C@@H](C)O)[C@@H](C)OP(=O)(O)O)[C@@H](C)O", "note": "[Peptide 10] ({5FAM-Ahx}-LHEETPP[pT]TSSDSEE-NH2)", "values": [{"measurement": "Kd", "setting": "[1]; n = 3", "value": "> 500", "unit": "µM"}, {"measurement": "Binding in the FA assay (in words)", "setting": "[1]", "value": "did not bind"}]}
{"molecule": "CC(C)C[C@H](NC(=O)[C@H](CO)NC(=O)[C@H](CC(=O)O)NC(=O)[C@H](CC(=O)O)NC(=O)CNC(=O)[C@H](CC(N)=O)NC(=O)[C@H](COP(=O)(O)O)NC(=O)[C@@H](NC(=O)[C@H](CCCCN)NC(=O)[C@H](CCCNC(=N)N)NC(=O)[C@H](CC(N)=O)NC(=O)[C@H](CC(N)=O)NC(=O)[C@H](CC(N)=O)NC(=O)[C@H](CC(N)=O)NC(=O)CCCCCNC(=O)c1ccc2c(c1)C(=O)OC21c2ccc(O)cc2Oc2cc(O)ccc21)[C@@H](C)O)C(=O)N[C@@H](Cc1ccccc1)C(N)=O", "note": "[Peptide 5] ({5FAM-Ahx}-NNNNRKT[pS]NGDDSLF-NH2)", "values": [{"measurement": "Kd", "setting": "[1]; n = 3, read-out: Kd", "value": "> 500", "unit": "µM"}, {"measurement": "Binding in the FA assay (in words)", "setting": "[1]", "value": "no binding"}]}
{"molecule": "SAKSRLQ[pT]APVPMPD-NH2 (not fully specified (N-terminus), Tau, seven residues before and after phosphosite 245; numbers count on: P10636-8; source: synthetic peptide, bought: GenScript)", "note": "[Tau pT245 peptide (peptide 2), FAM-labelled]", "values": [{"measurement": "Kd", "setting": "[2]", "value": 8.6, "unit": "µM"}, {"measurement": "Kd", "setting": "[3]", "value": "8.5 ± 0.2", "unit": "µM"}]}
{"molecule": "{5FAM-Ahx}-SGDRSGY[pS]SPGSPGT-NH2 (SMILES C[C@@H](O)[C@H](NC(=O)CNC(=O)[C@@H]1CCCN1C(=O)[C@H](CO)NC(=O)CNC(=O)[C@@H]1CCCN1C(=O)[C@H](CO)NC(=O)[C@H](COP(=O)(O)O)NC(=O)[C@H](Cc1ccc(O)cc1)NC(=O)CNC(=O)[C@H](CO)NC(=O)[C@H](CCCNC(=N)N)NC(=O)[C@H](CC(=O)O)NC(=O)CNC(=O)[C@H](CO)NC(=O)CCCCCNC(=O)c1ccc2c(c1)C(=O)OC21c2ccc(O)cc2Oc2cc(O)ccc21)C(N)=O, Tau, seven residues before and after phosphosite 198; numbers count on: P10636-8; source: synthetic peptide, bought: GenScript)", "note": "[Tau pS198 peptide (peptide 4), FAM-labelled]", "values": [{"measurement": "Kd", "setting": "[2]", "value": 71, "unit": "µM"}]}
{"molecule": "{5FAM-Ahx}-FPRARTV[pS]VSVPPHG-NH2 (SMILES CC(C)[C@H](NC(=O)[C@H](COP(=O)(O)O)NC(=O)[C@@H](NC(=O)[C@@H](NC(=O)[C@H](CCCNC(=N)N)NC(=O)[C@H](C)NC(=O)[C@H](CCCNC(=N)N)NC(=O)[C@@H]1CCCN1C(=O)[C@H](Cc1ccccc1)NC(=O)CCCCCNC(=O)c1ccc2c(c1)C(=O)OC21c2ccc(O)cc2Oc2cc(O)ccc21)[C@@H](C)O)C(C)C)C(=O)N[C@@H](CO)C(=O)N[C@H](C(=O)N1CCC[C@H]1C(=O)N1CCC[C@H]1C(=O)N[C@@H](Cc1c[nH]cn1)C(=O)NCC(N)=O)C(C)C, Notch-4, seven residues before and after phosphosite 1847; also called NOTCH pS1847; source: synthetic peptide, bought: GenScript)", "note": "[Notch 4 pS1847 peptide (peptide 3), FAM-labelled]", "values": [{"measurement": "Kd", "setting": "[2]", "value": 70, "unit": "µM"}]}
{"molecule": "KVTSKCG[pS]LGNIHHK", "note": "[Tau-pS324 peptide]", "values": [{"measurement": "Kd", "setting": "[3]", "value": "> 100", "unit": "µM"}]}
{"molecule": "GSRSRTP[pS]LPTPPTR", "note": "[Tau-pS214 peptide]", "values": [{"measurement": "Kd", "setting": "[3]", "value": "16.4 ± 0.9", "unit": "µM"}]}
{"molecule": "{5FAM-Ahx}-KGLPRPK[pS]AGTATQM-NH2 (SMILES CSCC[C@H](NC(=O)[C@H](CCC(N)=O)NC(=O)[C@@H](NC(=O)[C@H](C)NC(=O)[C@@H](NC(=O)CNC(=O)[C@H](C)NC(=O)[C@H](COP(=O)(O)O)NC(=O)[C@H](CCCCN)NC(=O)[C@@H]1CCCN1C(=O)[C@H](CCCNC(=N)N)NC(=O)[C@@H]1CCCN1C(=O)[C@H](CC(C)C)NC(=O)CNC(=O)[C@H](CCCCN)NC(=O)CCCCCNC(=O)c1ccc2c(c1)C(=O)OC21c2ccc(O)cc2Oc2cc(O)ccc21)[C@@H](C)O)[C@@H](C)O)C(N)=O, Bcl-2-associated agonist of cell death (BAD), seven residues before and after phosphosite 134; source: synthetic peptide, bought: GenScript)", "note": "[BAD pS134 peptide (peptide 6), FAM-labelled]", "values": [{"measurement": "Kd", "setting": "[2]", "value": 15.9, "unit": "µM"}]}
{"molecule": "{5FAM-Ahx}-GLMQRSS[pS]FPYTTKG-NH2 (SMILES CSCC[C@H](NC(=O)[C@H](CC(C)C)NC(=O)CNC(=O)CCCCCNC(=O)c1ccc2c(c1)C(=O)OC21c2ccc(O)cc2Oc2cc(O)ccc21)C(=O)N[C@@H](CCC(N)=O)C(=O)N[C@@H](CCCNC(=N)N)C(=O)N[C@@H](CO)C(=O)N[C@@H](CO)C(=O)N[C@@H](COP(=O)(O)O)C(=O)N[C@@H](Cc1ccccc1)C(=O)N1CCC[C@H]1C(=O)N[C@@H](Cc1ccc(O)cc1)C(=O)N[C@H](C(=O)N[C@H](C(=O)N[C@@H](CCCCN)C(=O)NCC(N)=O)[C@@H](C)O)[C@@H](C)O, forkhead box O3 (FOXO3), seven residues before and after phosphosite 413; also called FOXO pS413; source: synthetic peptide, bought: GenScript)", "note": "[FOXO3 pS413 peptide (peptide 1), FAM-labelled]", "values": [{"measurement": "Kd", "setting": "[2]", "value": 1.6, "unit": "µM"}]}
